# Measurements published in patent US7101881B2, “Tetrahydroquinolines” (Pfizer Inc, priority 2003, dated 2006).
# Structures can show the parent of a compound that is named as a salt.
row,SMILES,melting point
1,"COc1ccc(CC(=O)N2CCc3cccc(N4CCN(C)CC4)c3C2)cc1 (as salt: salt) [Example 3, 2-(4-Methoxy-phenyl)-1-[8-(4-methyl-piperazin-1-yl)-3,4-dihydro-1H-isoquinolin-2-yl]-ethanone]",63 °C
2,"CN1CCN(c2cccc3c2CN(C(=O)Cc2cccnc2)CC3)CC1 (as salt: salt) [Example 9, 1-[8-(4-Methyl-piperazin-1-yl)-3,4-dihydro-1H-isoquinolin-2-yl]-2-pyridin-3-yl-ethanone]",56 °C
3,"CN1CCN(c2cccc3c2CN(C(=O)c2ccc(Cl)cc2)CC3)CC1 (as salt: salt) [Example 10, (4-Chloro-phenyl)-[8-(4-methyl-piperazin-1-yl)-3,4-dihydro-1H-isoquinolin-2-yl]-methanone]",52 °C
4,CN1CCN(c2cccc3c2CN(C(=O)CC2CC2)CC3)CC1 (as salt: salt),66 °C
5,"CN1CCN(c2cccc3c2CN(C(=O)Cc2ccccc2Cl)CC3)CC1 (as salt: salt) [Example 7, 2-(2-Chloro-phenyl)-1-[8-(4-methyl-piperazin-1-yl)-3,4-dihydro-1H-isoquinolin-2-yl]-ethanone]",54 °C
6,"CN1CCN(c2cccc3c2CN(C(=O)c2ccc(N4CCOCC4)cc2)CC3)CC1 [Example 11, [8-(4-Methyl-piperazin-1-yl)-3,4-dihydro-1H-isoquinolin-2-yl]-(4-morpholin-4-yl-phenyl)-methanone]",129 °C (dec.)
7,"CN1CCN(c2cccc3c2CN(C(=O)CCc2ccc(Cl)cc2)CC3)CC1 (as salt: salt) [Example 2, 3-(4-Chloro-phenyl)-1-[8-(4-methyl-piperazin-1-yl)-3,4-dihydro-1H-isoquinolin-2-yl]-propan-1-one]",84 °C
8,"CN1CCN(c2cccc3c2CN(C(=O)Cc2ccc(Cl)cc2Cl)CC3)CC1 (as salt: salt) [Example 6, 2-(2,4-Dichloro-phenyl)-1-[8-(4-methyl-piperazin-1-yl)-3,4-dihydro-1H-isoquinolin-2-yl]-ethanone]",85 °C
9,"CN1CCN(c2cccc3c2CN(C(=O)Cc2ccc(Cl)c(Cl)c2)CC3)CC1 [Example 12, 2-(3,4-Dichloro-phenyl)-1-[8-(4-methyl-piperazin-1-yl)-3,4-dihydro-1H-isoquinolin-2-yl]-ethanone]",66 °C
